The values that follow come from the supplement of paper PMC4862054.

Several values for one entry are separate records, joined by “and”; a condition that tells them apart may be missing. Equal values may be shown once.

Conditions in all cases: incubation time: 72 h
In assay [1] the test system is CAL-51. In words: normalised viability (% of control), CellTiter-Blue; higher = more viable cells (about 100 = DMSO control). Here is the method: (§1)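 DSRT, CellTiter-Blue viability, 72 h incubation. Signal is normalised to DMSO and benzethonium chloride controls. Value is the normalised response at dose 7.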
(Alamar Blue is a resazurin reagent that responds to reducing activity.)

The subject of assay [2] is DU-4475. The description is as above. Here is the method:
as §1

The subject of assay [3] is CAL-85-1. The assay is described as above. Here is the method:
as §1

The test system of assay [4] is MDA-MB-453. The description is as above. Here is the method: as §1
Assay [5] relates to HDQ-P1. The assay is described as above. The procedure:
as §1

Assay [6] relates to CAL-148. The description is as above. Here is the method:
as §1

Assay [7] deals with CAL-51. The assay is described as above. Here is the method: (§2)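 DSRT, CellTiter-Blue viability, 72 h incubation. Signal is normalised to DMSO and benzethonium chloride controls. Value is the normalised response at dose 9.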
The source holds these as a separate data set.

The subject of assay [8] is DU-4475. Described as above. Here is the method:
as §2
The source holds these as a separate data set.

In assay [9] the test system is CAL-85-1. Described as above. Here is the method:
as §2
This is another data set of the same source.

Assay [10] relates to MDA-MB-453. Described as above. Here is the method:
as §2
The source holds these as a separate data set.

For assay [11], the system named is HDQ-P1. Described as above. Here is the method: as §2
This is another data set of the same source.

The test system of assay [12] is CAL-148. The description is as above. Here is the method: as §2
The source holds these as a separate data set.

Assay [13] relates to Hs578T. Description: normalised response (% of control), CellTiter-Glo; higher = more viable cells (100 = DMSO, 0 = benzethonium chloride kill control). A digest of the protocol:
(§3)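 A 20 µl suspension of breast cancer cells was seeded into each well of 384-well plates containing compound at 5 concentrations in 10-fold steps over a compound-specific 10,000-fold range. After 72 h incubation, CellTox Green fluorescence (485/520 nm) was read first, and CellTiter-Glo luminescence was read after 10 min at room temperature. Each plate was normalised against 0.1 % DMSO (100) and a positive kill control (0), and each value is the normalised signal at one concentration.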
For orientation: In ATP-based viability assays light output follows the ATP content of the culture.

The subject of assay [14] is HCC1599. Described as above. A digest of the protocol: as §3
Assay [15] concerns CAL-51. The assay is described as above. In outline:
as §3

The test system of assay [16] is HCC1143. The description is as above. A digest of the protocol:
as §3

Assay [17] relates to BT-549. Described as above. In outline:
as §3

Assay [18] relates to SK-BR-3. The description is as above. In outline:
as §3

Assay [19] concerns DU-4475. The description is as above. A digest of the protocol:
as §3

Assay [20] concerns CAL-85-1. Described as above. A digest of the protocol:
as §3

In assay [21] the test system is MDA-MB-453. The assay is described as above. A digest of the protocol:
as §3

The subject of assay [22] is MDA-MB-231. Described as above. In outline:
as §3

The subject of assay [23] is HDQ-P1. The assay is described as above. In outline:
as §3

For assay [24], the system named is MDA-MB-436. The description is as above. In outline: as §3
The test system of assay [25] is MCF-10A. The description is as above. In outline: as §3
Assay [26] concerns HCC1937. Described as above. In outline:
as §3

For assay [27], the system named is MFM-223. The description is as above. In outline: as §3
Assay [28] relates to MDA-MB-468. Described as above. A digest of the protocol: as §3
Assay [29] concerns CAL-148. The description is as above. A digest of the protocol: as §3
For assay [30], the system named is CAL-120. The description is as above. A digest of the protocol: as §3
The test system of assay [31] is BT-474. Described as above. In outline: as §3
For assay [32], the system named is Hs578T. Description: normalised viability (% of control), CellTiter-Blue; higher = more viable cells (100 = DMSO, 0 = benzethonium chloride kill control). Here is the method: (§4)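 DSRT, CellTiter-Blue viability, 72 h incubation. Signal is normalised to DMSO and benzethonium chloride controls. Value is the normalised response at dose 1.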
Assay [33] has as its system HCC1599. The description is as above. The procedure: as §4
For assay [34], the system named is CAL-51. Described as above. Here is the method: as §4
In assay [35] the test system is HCC1143. The description is as above. Here is the method: as §4
In assay [36] the test system is BT-549. The description is as above. The procedure:
as §4

For assay [37], the system named is SK-BR-3. The description is as above. Here is the method:
as §4

Assay [38] concerns DU-4475. Described as above. The procedure: as §4
In assay [39] the test system is CAL-85-1. The assay is described as above. Here is the method: as §4
Assay [40] relates to MDA-MB-453. The assay is described as above. Here is the method:
as §4

Assay [41] deals with MDA-MB-231. Described as above. Here is the method:
as §4

Assay [42] concerns MDA-MB-436. The description is as above. Here is the method: as §4
Assay [43] has as its system HCC1937. Described as above. Here is the method: as §4
Assay [44] deals with MFM-223. Described as above. The procedure:
as §4

For assay [45], the system named is MDA-MB-468. The assay is described as above. Here is the method: as §4
Assay [46] relates to CAL-148. The description is as above. Here is the method:
as §4

Assay [47] has as its system CAL-120. The description is as above. The procedure:
as §4

The subject of assay [48] is BT-474. The description is as above. The procedure: as §4

With `CC[C@@]1(O)C(=O)OCc2c1cc1n(c2=O)Cc2cc3ccccc3nc2-1` [Camptothecin] (500 nM), the normalised viability in [1] was found to be 5.8%; in assay [2], 10.7%; in assay [3], 40%; in [4], 23.7%; in assay [5], 50.3%; in assay [6], 8%.

For the molecule `CC[C@@]1(O)C(=O)OCc2c1cc1n(c2=O)Cc2cc3ccccc3nc2-1` [Camptothecin] (5000 nM), the normalised viability in assay [7] is 1.8%; in assay [8], -0.07%; in assay [9] it was 13.9%; in [10], 5.48%; in assay [11] it was 24.2%; in assay [12], 0.33%.

For `O=P(O)(NCCCl)NCCCl` [Ifosfamide mustard] (1000 nM), the normalised viability in assay [1] was 107%; in [2] it was 112%; in assay [3] it was 89.4%; in assay [4], 104%; in assay [5] it was 119%; in [6], 111%.

Regarding `O=P(O)(NCCCl)NCCCl` [Ifosfamide mustard] (10000 nM), the normalised viability was 94.3% in assay [7]; 96.1% in assay [8]; 87.1% in assay [9]; 99.8% in [10]; 105% in [11]; 105% in [12].

`CS(=O)(=O)CCNCc1ccc(-c2ccc3ncnc(Nc4ccc(OCc5cccc(F)c5)c(Cl)c4)c3c2)o1` [Lapatinib] (1 nM): the normalised response in assay [13] stood at 104%; in [14], 90.2%; in assay [15], 77.7%; in assay [16], 105%; in [17], 95.4%; in assay [18], 116%. In addition, the normalised response is 107% in [19]; 93.4% in assay [20]; 108% in [21]; 99.5% in [22]; 95.7% in assay [23]; 99.3% in [24]. The normalised response in assay [25] was determined as 99.3%; in assay [26], 100%; in assay [27], 107%; in assay [28], 106%; in assay [29], 110%; in assay [30], 100%. This molecule returned a normalised response in [31] of 105%. The normalised viability in [32] is 100% and 124%; in assay [33], 114% and 97.8%; in assay [34], 116% and 104%; in assay [35], 87% and 88%; in [36], 88.8% and 94.3%; in assay [37] it was 92.7% and 105%. Further, the normalised viability in assay [38] was 96.4% and 93.1%; in assay [39], 90.3% and 86.8%; in assay [40], 99.8% and 92.5%; in assay [41], 86.6% and 96.8%; in [42], 104% and 115%; in assay [43], 99.3% and 105%. Also, the normalised viability in assay [44] was 96.7% and 95.1%; in [45], 108% and 114%; in [46] it was 97.7% and 107%; in assay [47], 83.3% and 87.2%; in assay [48], 85.4% and 94.8%.
